From patent publication US20260240923A1, “COMPOSITION COMPRISING BIFIDOBACTERIUM ANIMALIS SUBSP. LACTIS STRAIN AND 2’-FUCOSYLLACTOSE” (Chr. Hansen A/S, priority 2023, published 2026)

System: human PBMCs
Experiment: Cytokine secretion from human PBMCs, homeostatic and Poly (I:C) challenged conditions (Example 6)
Assay type: cell-based
Conditions: homeostatic (unchallenged) conditions, 20 hrs; bacteria grown on 2′FL; 2′FL 2%

Substance: 2′-Fucosyllactose [2′FL]
- IFN-γ secretion: did not induce secretion
- IL-10 secretion: did not induce secretion
